The test system of one assay is Adrenergic α1 (ns). In words: Binding α1 (ns) (aa). On the set-up: species or system rat. Here is the method:
(§1) Radioligand binding assay methods utilized to measure the activity of compounds of the invention will be familiar to those skilled in the art. In each assay case, the assay components such as, for example, the cell-type, ligand, reference compound and the like, will be familiar to practitioners of such an assay.
(§2) Analysis and Expression of Results: Compounds of the invention were tested in the biochemical assays and percent inhibition of specific binding was determined. The specific ligand binding to the receptors is defined as the difference between the total binding and the nonspecific binding determined in the presence of an excess of unlabelled ligand. The results are expressed as a percent inhibition of control specific binding (100−((measured specific binding/control specific binding)×100)) obtained in the presence of test compounds.

In another assay the target is T1, β2 (h) (Homo sapiens, UniProt P07550).
T1 construct: expressed in transfected cells; host or cells: CHO cells
T1 sequence (P07550 whole entry): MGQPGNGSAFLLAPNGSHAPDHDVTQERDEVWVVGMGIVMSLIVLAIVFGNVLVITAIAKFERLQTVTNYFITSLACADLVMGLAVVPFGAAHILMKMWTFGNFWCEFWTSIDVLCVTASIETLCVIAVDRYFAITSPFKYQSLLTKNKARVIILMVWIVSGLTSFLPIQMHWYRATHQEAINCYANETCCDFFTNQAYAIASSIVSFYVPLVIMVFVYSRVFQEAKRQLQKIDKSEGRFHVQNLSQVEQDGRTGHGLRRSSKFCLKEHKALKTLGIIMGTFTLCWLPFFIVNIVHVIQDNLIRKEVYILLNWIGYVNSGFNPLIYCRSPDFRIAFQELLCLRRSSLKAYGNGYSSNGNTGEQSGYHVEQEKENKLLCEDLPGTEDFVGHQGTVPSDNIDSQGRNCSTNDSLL
In words: Binding β2 (h) (ag). As to conditions: read-out: % Inhibition of Control Specific Binding @ 10 μM. As for the experimental part: as §1, §2

Assay [1] has as its target T2, Thyrotropin Releasing Hormone TRH1 (h) (Homo sapiens, UniProt P34981).
T2 construct: expressed in transfected cells; host or cells: CHO cells
T2 sequence (P34981 1-398): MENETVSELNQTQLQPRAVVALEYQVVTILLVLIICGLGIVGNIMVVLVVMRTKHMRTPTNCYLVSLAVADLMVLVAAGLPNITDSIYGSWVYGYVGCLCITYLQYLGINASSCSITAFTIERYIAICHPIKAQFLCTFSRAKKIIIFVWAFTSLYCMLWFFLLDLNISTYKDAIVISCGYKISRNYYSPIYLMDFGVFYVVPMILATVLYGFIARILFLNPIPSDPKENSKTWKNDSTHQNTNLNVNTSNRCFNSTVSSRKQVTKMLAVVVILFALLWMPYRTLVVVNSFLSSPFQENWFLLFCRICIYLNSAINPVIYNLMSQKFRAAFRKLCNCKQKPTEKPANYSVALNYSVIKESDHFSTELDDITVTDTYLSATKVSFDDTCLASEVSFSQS
In words: Binding TRH1 (h) (ag). Particulars: read-out: % Inhibition of Control Specific Binding @ 10 μM. As for the experimental part: as §1, §2

Another assay has as its system KV channel. Kind of assay: Binding KV channel (aa). Further details: species or system rat. As for the experimental part:
as §1, §2

For the next assay, the target named is T3, acetylcholinesterase (h) (Homo sapiens, UniProt P22303).
T3 construct: host or cells: HEK-293 cells
T3 sequence (P22303 32-614): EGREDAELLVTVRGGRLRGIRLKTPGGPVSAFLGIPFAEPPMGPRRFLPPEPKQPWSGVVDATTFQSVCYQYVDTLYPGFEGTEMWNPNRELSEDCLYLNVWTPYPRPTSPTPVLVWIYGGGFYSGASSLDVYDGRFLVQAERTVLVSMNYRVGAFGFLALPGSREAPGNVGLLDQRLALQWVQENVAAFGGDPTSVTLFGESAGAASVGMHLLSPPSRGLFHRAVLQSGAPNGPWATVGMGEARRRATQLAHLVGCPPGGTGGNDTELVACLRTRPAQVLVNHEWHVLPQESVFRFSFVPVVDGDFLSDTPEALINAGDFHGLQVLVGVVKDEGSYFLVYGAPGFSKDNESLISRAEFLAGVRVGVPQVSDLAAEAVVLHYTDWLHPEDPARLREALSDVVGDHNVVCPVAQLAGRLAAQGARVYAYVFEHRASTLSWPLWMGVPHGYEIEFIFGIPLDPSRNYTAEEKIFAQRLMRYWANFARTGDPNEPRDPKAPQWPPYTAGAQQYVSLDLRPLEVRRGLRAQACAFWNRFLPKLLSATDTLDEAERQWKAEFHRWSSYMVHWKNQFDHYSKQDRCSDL
Kind of assay: Enzyme assay acetylcholinesterase (h). It counts as biochemical. Particulars: read-out: % Inhibition of Control Values @ 10 μM. The source says:
(§3) The enzyme assays provided below will be familiar to those skilled in the art.
(§4) Analysis and Expression of Results: The results are expressed as a percent of control specific activity ((measured specific activity/control specific activity)×100) obtained in the presence of the test compounds.

The target of the next assay is T4, MAO-B (h) (Homo sapiens, UniProt P27338).
T4 construct: human platelets; from tissue; host or cells: human platelets
T4 sequence (P27338 1-520): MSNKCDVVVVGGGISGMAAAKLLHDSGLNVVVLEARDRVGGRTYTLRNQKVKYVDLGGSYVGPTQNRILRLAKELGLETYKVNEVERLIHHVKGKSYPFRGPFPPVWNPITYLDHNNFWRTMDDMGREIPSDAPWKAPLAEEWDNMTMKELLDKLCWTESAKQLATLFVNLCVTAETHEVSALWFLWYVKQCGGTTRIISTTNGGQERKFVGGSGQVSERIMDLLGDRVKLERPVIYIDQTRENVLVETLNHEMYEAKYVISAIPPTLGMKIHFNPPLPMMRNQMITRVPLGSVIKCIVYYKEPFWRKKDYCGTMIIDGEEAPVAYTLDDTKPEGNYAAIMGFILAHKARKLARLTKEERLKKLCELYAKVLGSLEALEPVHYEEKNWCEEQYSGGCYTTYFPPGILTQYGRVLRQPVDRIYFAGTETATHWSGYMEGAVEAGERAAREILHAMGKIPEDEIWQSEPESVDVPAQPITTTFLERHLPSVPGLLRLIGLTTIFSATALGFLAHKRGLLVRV
Kind of assay: Enzyme assay MAO-B (h). It counts as biochemical. As to conditions: read-out: % Inhibition of Control Values @ 10 μM.
Source text: as §3, §4

Assay [2] concerns the target T5, human GABAA α1β3γ2 receptor (Homo sapiens, UniProt P14867+P18507+P28472).
T5 construct: expressed in transfected cells; host or cells: Xenopus laevis oocytes, cDNA injection
In words: GABAA Functional Assay, α1β3γ2, Xenopus oocytes. It counts as cell-based.

SMILES strings stand for the structures.

The values that follow come from US8524755B2 (priority 2009, dated 2013).

For orientation: inhibition means the relative decrease from the control value, in per cent. In general, IC50 refers to the concentration that gives 50% inhibition.

T5 sequence (P14867 28-456): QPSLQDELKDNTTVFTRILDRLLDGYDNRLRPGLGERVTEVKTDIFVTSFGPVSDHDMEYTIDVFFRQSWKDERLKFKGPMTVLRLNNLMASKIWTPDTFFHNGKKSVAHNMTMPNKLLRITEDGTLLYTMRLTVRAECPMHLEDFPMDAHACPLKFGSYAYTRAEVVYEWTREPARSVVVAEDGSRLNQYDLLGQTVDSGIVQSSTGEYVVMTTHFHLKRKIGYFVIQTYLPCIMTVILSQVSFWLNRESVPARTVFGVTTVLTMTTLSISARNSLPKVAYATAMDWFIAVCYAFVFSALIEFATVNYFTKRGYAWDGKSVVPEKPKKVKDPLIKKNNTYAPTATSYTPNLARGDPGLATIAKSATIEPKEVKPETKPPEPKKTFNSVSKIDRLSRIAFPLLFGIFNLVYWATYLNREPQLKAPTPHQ
T5 sequence (P28472 26-473): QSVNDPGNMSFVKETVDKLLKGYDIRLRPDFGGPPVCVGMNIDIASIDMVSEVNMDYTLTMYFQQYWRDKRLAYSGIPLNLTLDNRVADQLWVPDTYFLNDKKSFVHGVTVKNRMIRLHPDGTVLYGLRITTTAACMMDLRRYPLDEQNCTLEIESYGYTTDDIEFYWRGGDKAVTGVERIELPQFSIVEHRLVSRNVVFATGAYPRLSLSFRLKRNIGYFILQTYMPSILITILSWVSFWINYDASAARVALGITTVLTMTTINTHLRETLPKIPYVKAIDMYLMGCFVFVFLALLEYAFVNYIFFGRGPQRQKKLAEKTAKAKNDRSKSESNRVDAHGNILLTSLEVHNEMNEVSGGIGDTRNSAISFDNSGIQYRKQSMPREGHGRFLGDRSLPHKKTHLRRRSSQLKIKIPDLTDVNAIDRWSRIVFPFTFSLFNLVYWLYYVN
T5 sequence (P18507 40-475): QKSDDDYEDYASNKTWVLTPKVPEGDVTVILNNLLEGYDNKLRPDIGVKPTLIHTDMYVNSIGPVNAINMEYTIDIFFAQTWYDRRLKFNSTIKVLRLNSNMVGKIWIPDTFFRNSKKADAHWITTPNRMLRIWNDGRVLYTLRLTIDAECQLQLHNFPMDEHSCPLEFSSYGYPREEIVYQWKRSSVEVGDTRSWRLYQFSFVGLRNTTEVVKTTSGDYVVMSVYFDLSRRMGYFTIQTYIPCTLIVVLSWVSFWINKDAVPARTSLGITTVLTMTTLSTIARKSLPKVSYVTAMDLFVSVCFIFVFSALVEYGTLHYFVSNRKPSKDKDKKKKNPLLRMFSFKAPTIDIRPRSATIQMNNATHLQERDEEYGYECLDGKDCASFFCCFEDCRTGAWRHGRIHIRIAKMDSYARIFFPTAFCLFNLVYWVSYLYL

In the case of `CC1(C)C(=O)N(c2ccc(C#N)c(C(F)(F)F)c2)C(=O)N1c1ccc(C(N)=O)c(F)c1` [(MIII), 4-(3-(4-cyano-3-(trifluoromethyl)phenyl)-5,5-dimethyl-2,4-dioxoimidazolidin-1-yl)-2-fluorobenzamide], the “% Inhibition of Control Specific Binding @ 10 μM” value (shortened to “% Inhibition”) in the assay with Adrenergic α1 (ns) was −5%; with KV channel, −2%. The inhibition at 10 µM at β2 (h) was -6%; in assay [1], -5%; on acetylcholinesterase (h), -1%; at MAO-B (h), -5%.
Regarding `CNC(=O)c1ccc(N2C(=O)N(c3ccc(C#N)c(C(F)(F)F)c3)C(=O)C2(C)C)cc1F` [(MIV), 4-(3-(4-cyano-3-(trifluoromethyl)phenyl)-5,5-dimethyl-2,4-dioxoimidazolidin-1-yl)-2-fluoro-N-methylbenzamide], the “% Inhibition” value in the assay on Adrenergic α1 (ns) was −3%; with KV channel, −4%. Also, the inhibition at 10 µM on β2 (h) was -10%; in assay [1], 0%; on acetylcholinesterase (h) it was 23%; at MAO-B (h) it was 11%. For the same compound, the “agonist activity at α1β3γ2 GABAA receptor (inward currents)” value in assay [2] (single exposure 30 sec) is “did not evoke any detectable inward currents”.
`CC1(C)C(=O)N(c2ccc(C#N)c(C(F)(F)F)c2)C(=S)N1c1ccc(C(N)=O)c(F)c1` [(MII), 4-(3-(4-Cyano-3-(trifluoromethyl)phenyl)-5,5-dimethyl-4-oxo-2-thioxoimidazolidin-1-yl)-2-fluorobenzamide]: the “% Inhibition” value with Adrenergic α1 (ns) is −7%; in the assay on KV channel, −3%. Besides, the inhibition at 10 µM at β2 (h) was -3%; in assay [1] it was -4%; at acetylcholinesterase (h), 9%; on MAO-B (h) it was -4%.
In the case of `CC1(C)C(=O)N(c2ccc(C#N)c(C(F)(F)F)c2)C(=S)N1c1ccc(C(=O)O)c(F)c1` [(MI), 4-(3-(4-cyano-3-(trifluoromethyl)phenyl)-5,5-dimethyl-4-oxo-2-thioxoimidazolidin-1-yl)-2-fluorobenzoic acid], the “% Inhibition” value is reported as −4% in the assay on Adrenergic α1 (ns) and −2% with KV channel. Besides, the inhibition at 10 µM at β2 (h) is 6%; in assay [1] it was 18%; at acetylcholinesterase (h), 51%; on MAO-B (h) it was 8%. The IC50 in assay [2] (antagonist protocol, Xenopus oocytes, read-out: α1β3γ2 receptor derived IC50) is 68.3 ± 6 µM.
